{"source": "patent US20110059124A1", "about": "“THE QUALITY CONTROL METHOD AND APPLICATION OF A KIND OF GANODERMA LUCIDUM SPORE OIL FAT EMULSION” (Guangzhou Hanfang Natural Medicine Research & Development …, priority 2008, published 2011)", "format_in_all_cases": "in vivo, ICR mice", "key": {"[1]": {"system": "H22 tumor bearing mice", "test": "Delayed hypersensitivity (DNFB) in H22 tumor bearing mice", "settings": "0.42 mg/kg Sc once every other day", "text": "Experiment Treatment Effect of Ganoderma lucidium Spore Oil Fat Emulsion i.v. Dosage Influencing the Immunity Function of Specific Cells in H22 Tumor Bearing Mice\nTake 50 ICR mice, inoculate with H22 solid tumor pursuant to the research method of transplantable tumor (take the tumor mass under sterile operation, then weigh, grinding with Glass tissue homogenizer, after homogeneity, put into sterile containers, then dilute with normal saline into cell suspension of 1:3, for each mouse, inoculate intracutaneously under the right armpit for 0.2 ml). On the second day, they are randomized into 5 groups, with 10 mice in each group, with half being males and half females, which are divided into: Intravenous Control Group ([…], Blank Group), High, Medium, Low Doasge Groups injected with Ganoderma lucidium spore oil fat emulsion (1, 0.5, 0.25 g/kg) iv administered, Thymosin a1 injection group (0.42 mg/kg) Sc administered; apart from that Thymosin a1 is administered once every other day, other groups are administered once daily, with 7 administration. On day 1 after dosage, hair is removed from the abdomen of each mouse, with an area of 3×3 cm^2. On day 2 after dosage, smear 1% of DNFB evenly on the abdomen of mice (DNFB is a kind of haptene, which after combination with cutaneous proteins could form holoantigen, that stimulate the T Lymphocytes to multiply into sensitized lymphocytes)."}, "[2]": {"system": "H22 tumor bearing mice", "test": "Toxicity reduction for ^60Co radiation in H22 tumor bearing mice", "settings": "^60Co 500 rad, 0.42 mg/kg Sc once every other day", "protocol": "Toxicity Reducing Effect of Ganoderma lucidium Spore Oil Fat Emulsion i.v. Dosage for Chemotherapy with ^60Co in H22 Tumor Bearing Mice\n(§1) Experiment Method: Take 60 ICR mice, innoculate with H22 solid tumor pursuant to the research method for transplantable tumors, 24 hours after innoculation, apart from the 10 animals in blank control, the other 50 mice receive ^60Co radiation, with a dosage of 500 rad; after radiation with ^60Co, randomize the animals into 5 groups pursuant to body weight, with 10 animals in each group, half of which are females and half of which are males. […] Apart from that Thymosin a1 are dosed once every other day, the other groups are administered once daily, with a total dose of 7 times, and the mice are sacrificed 24 hours after termination of dosage, weigh and collect blood from the orbit veins before sacrificing, microscopically examine the total number of peripheral blood leukocytes, at the same time remove spleen, thymus gland and one complete femur, then determine the number of nucleated cells in bone marrow, and weigh the thymus gland and spleen, and calculate the coefficients of thymus glands and spleen organs, and carry out statistical treatment (t Test)."}, "[3]": {"system": "normal mice", "test": "Toxicity reduction for ^60Co radiation in normal mice", "settings": "^60Co 500 rad, 0.42 mg/kg Sc once every other day", "protocol": "Toxicity Reducing Effect of Ganoderma lucidium Spore Oil Fat Emulsion i.v . Dosage for Chemotherapy ^60Co in Normal Mice\nas §1, with “mice,” for “mice, innoculate with H22 solid tumor pursuant to the research method for transplantable tumors, 24 hours after innoculation,”, “are radiated with ^60Co,” for “receive ^60Co radiation,”, “All groups of animals are dosed 24 hours after innoculation, apart” for “Apart”, “leukocytes;” for “leukocytes,”"}, "[4]": {"system": "H22 tumor bearing mice", "test": "Phagocytic activity of reticuloendothelial system (RES) in H22 tumor bearing mice", "settings": "0.42 mg/kg Sc once every other day", "protocol": "Experiment Treatment Effect of Ganoderma lucidium Spore Oil Fat Emulsion i.v. Dosage Influencing the Phagocytic Activity of Reticuloendothelial System (RES) in H22 Tumor Bearing Mice.\nExperiment Method: Take 50 ICR mice, inoculate with H22 solid tumor, randomize into 5 groups pursuant to body weight, with 10 animals in each group, half of which are females and half of which are males. […] Apart from that Thymosin a1 is administered once every other day, other groups are administered once daily, with a total dosage of 11 times. […] All the data obtained are statistically treated (t Test)."}, "[5]": {"system": "H22 tumor bearing mice", "test": "Toxicity reduction for chemotherapy with cyclophosphamide (Cy) in H22 tumor bearing mice", "settings": "0.42 mg/kg Sc once every other day + Cy 100 mg/kg ip", "protocol": "Toxicity Reduction Effect of Ganoderma lucidium Spore Oil Fat Emulsion i.v. Dosage for Chemotherapy with Cyclophosphamide (Cy) in H22 Tumor Bearing Mice\nExperiment Method: Take 60 ICR mice, inoculate with H22 solid tumor, weigh 24 hours after inoculation, then randomize into 6 groups, with 10 animals in each group, half of which are females and half of which are males. […] Apart from that Thymosin a1 are dosed once every other day, the other groups are administered once daily, with a total dose of 7 times, on day 4 and day 5 of administration, apart from blank control, the other groups begin to be treated with ip.Cy (100 mg/kg), for two successive day, and the mice are sacrificed 24 hours after termination of dosage, weigh and collect blood from the orbit veins before sacrificing, microscopic examine the total number of peripheral blood leukocytes, at the same time dissect one complete femur, then determine the number of nucleated cells in the bone marrow, and remove the thymus gland and spleen for weighing, and calculate the coefficients of thymus glands and spleen organs, and carry out statistical treatment (t Test)."}, "[6]": {"system": "normal mice", "test": "Toxicity reduction for chemotherapy (Cy) in normal mice", "settings": "0.42 mg/kg Sc once every other day + Cy 100 mg/kg ip", "protocol": "Toxicity reducing Effect of Ganoderma lucidium Spore Oil Fat Emulsion i.v. Dosage for Chemotherapy (Cy) in Normal Mice\nExperiment Method: Take 60 ICR mice, and randomize into 6 groups pursuant to body weight, with 10 animals in each group, half of which are females and half of which are males. […] Apart from that Thymosin a1 is administered once every other day, other groups are administered once daily, with a total dosage of 7 times. On day 4 and day 5 of the administration, apart from blank control, the other groups begin to be treated with ip.Cy (100 mg/kg), for two successive days, and the mice are sacrificed 24 hours after termination of dosage, weigh and collect blood from the orbit veins before sacrificing, microscopically examine the total number of peripheral blood leukocytes, at the same time dissect one complete femur, then determine the number of nucleated cells in the bone marrow, and remove the thymus gland and spleen for weighing, and calculate the coefficients of thymus glands and spleen organs, and carry out statistical treatment (t Test)."}}, "note": "Marks after values point to notes of the source that are not given here. Ends that are not written are not given here."}
{"substance": "Thymosin a1: Positive control drug Thymosin a1 injection, 0.42 mg/kg Sc (SDAAVDTSSEITTKDLKEKKEVVEEAEN; ends and bridges not checked; UniProt P06454 2-29, looked up)", "values": [{"measurement": "Swelling Degree", "setting": "[1]; 24 hours after DNFB attack", "value": "13.50 ± 3.44", "unit": "mg"}, {"measurement": "Swelling Rate", "setting": "[1]; 24 hours after DNFB attack", "value": "89.12 ± 19.76", "unit": "%"}, {"measurement": "Body Weight After Dosage", "setting": "[1]; in g", "value": "25.10 ± 2.18"}, {"measurement": "Body Weight Before Dosage", "setting": "[1]; in g", "value": "19.30 ± 1.34"}, {"measurement": "Body Weight After Dosage", "setting": "[2]", "value": "24.20 ± 2.25", "unit": "g"}, {"measurement": "Body Weight Before Dosage", "setting": "[2]", "value": "19.60 ± 1.51", "unit": "g"}, {"measurement": "Spleen Coefficient", "setting": "[2]", "value": "0.33 ± 0.04", "unit": "g/100 g"}, {"measurement": "The number of nucleated cells in bone marrow", "setting": "[2]", "value": "82.71 ± 13.58* 10^5/piece"}, {"measurement": "Thymus Gland Coefficient", "setting": "[2]", "value": "0.17 ± 0.07", "unit": "g/100 g"}, {"measurement": "WBC", "setting": "[2]", "value": "1.98 ± 0.31* 10^9/L"}, {"measurement": "Body Weight After Dosage", "setting": "[3]", "value": "23.30 ± 2.11", "unit": "g"}, {"measurement": "Body Weight Before Dosage", "setting": "[3]", "value": "19.90 ± 1.66", "unit": "g"}, {"measurement": "Spleen Coefficient", "setting": "[3]", "value": "0.31 ± 0.14", "unit": "g/100 g"}, {"measurement": "The number of nucleated cells in bone marrow", "setting": "[3]", "value": "67.83 ± 13.09* 10^5/piece"}, {"measurement": "Thymus Gland Coefficient", "setting": "[3]", "value": "0.14 ± 0.05", "unit": "g/100 g"}, {"measurement": "WBC", "setting": "[3]", "value": "1.21 ± 0.38* 10^9/L"}, {"measurement": "Clearance Index K", "setting": "[4]", "value": "0.09 ± 0.02"}, {"measurement": "Liver Coefficient", "setting": "[4]", "value": "6.91 ± 1.08", "unit": "g/100 g"}, {"measurement": "Phagocytic Coefficient α", "setting": "[4]", "value": "5.71 ± 0.76"}, {"measurement": "Spleen Coefficient", "setting": "[4]", "value": "1.16 ± 0.44", "unit": "g/100 g"}, {"measurement": "Thymus Gland Coefficient", "setting": "[4]", "value": "0.33 ± 0.11", "unit": "g/100 g"}, {"measurement": "Body Weight After Dosage", "setting": "[5]", "value": "23.60 ± 2.27", "unit": "g"}, {"measurement": "Body Weight Before Dosage", "setting": "[5]", "value": "19.70 ± 1.57", "unit": "g"}, {"measurement": "Spleen Coefficient", "setting": "[5]", "value": "0.64 ± 0.21", "unit": "g/100 g"}, {"measurement": "The number of nucleated cells in bone marrow", "setting": "[5]", "value": "73.31 ± 15.99* 10^5/piece"}, {"measurement": "Thymus Gland Coefficient", "setting": "[5]", "value": "0.12 ± 0.04", "unit": "g/100 g"}, {"measurement": "WBC", "setting": "[5]", "value": "2.03 ± 0.44* 10^9/L"}, {"measurement": "Body Weight After Dosage", "setting": "[6]", "value": "22.90 ± 2.18", "unit": "g"}, {"measurement": "Body Weight Before Dosage", "setting": "[6]", "value": "19.60 ± 1.26", "unit": "g"}, {"measurement": "Spleen Coefficient", "setting": "[6]", "value": "0.36 ± 0.10", "unit": "g/100 g"}, {"measurement": "The number of nucleated cells in bone marrow", "setting": "[6]", "value": "75.43 ± 13.32* 10^5/piece"}, {"measurement": "Thymus Gland Coefficient", "setting": "[6]", "value": "0.18 ± 0.03", "unit": "g/100 g"}, {"measurement": "WBC", "setting": "[6]", "value": "2.04 ± 0.41* 10^9/L"}]}
